This experiment has as its system Plasmodium berghei. As to the kind of experiment: Luciferase/luciferin-expressing antifolate-resistant parasites were used to infect a culture of HepG2 cells that were pre-incubated with compounds. Infected hepatocytes emit light due to the luciferase reaction. Assay results are presented as the percent inhibition of light emission compared to control. […]. Type of experiment: functional. Conditions: sporozoite; for IC90: read-out: LUCIFERASE INFECTION ASSAY - IC90.

Where [1] appears, read: read-out: LUCIFERASE INFECTION ASSAY - IC50.

The IC50 is the point on the concentration scale where inhibition reaches its midpoint. The term IC90 denotes the concentration at which the effect reaches the 90% level.

Where only a bound is given, the exact number is not on record here.

As for `CCN(CC)CCNC(=O)c1ccc(NC(=O)c2cccc(S(=O)(=O)N3CCc4ccccc43)c2)cc1`, the IC90 was over 10 µM. Further, the IC50 (PBLUC_HILL_SLOPE 8.86, PBLUC_R_SQUARED 0.0114, read-out: LUCIFERASE INFECTION ASSAY - IC50) is over 10 µM.
For `CNc1ccccc1C(C)(C)c1cc(NC(=O)C2CCCC2)sc1C(=O)c1ccc(Cl)cc1`, the IC90 is over 10 µM. Besides, the IC50 (HEPG2TOX_HILL_SLOPE 6.51, HEPG2TOX_R_SQUARED 0.0707, read-out: LUCIFERASE INFECTION ASSAY - IC50) was over 10 µM.
In the case of `Cc1nc(-c2ccc(CNC(=O)COc3ccccc3-c3ccccc3)o2)cs1`, the IC90 was over 10 µM. For the same molecule, under setting [1], the IC50 was over 10 µM.
For the molecule `CC(C)CCn1c(=O)c2ccccc2n2c(SCCS(=O)(=O)c3ccc(Cl)cc3)nnc12`, the IC90 is over 10 µM. Further, for the setting “HEPG2TOX_HILL_SLOPE 1.35, HEPG2TOX_R_SQUARED 0.511, PBLUC_HILL_SLOPE 2.98, PBLUC_R_SQUARED 0.427, read-out: LUCIFERASE INFECTION ASSAY - IC50”, the IC50 was 7.28 µM.
For the molecule `CSc1ccc(-c2cn3c(-c4cccc(CO)c4)cnc3cn2)cc1`, the IC90 was over 9.5 µM. Moreover, the IC50 under setting [1] is over 9.5 µM.
`COc1ccc(-c2csc3ncnc(Sc4nnnn4CC4CCCO4)c23)cc1` (centres undefined): the IC90 was over 10 µM. Besides, for the setting “HEPG2TOX_HILL_SLOPE 3.82, HEPG2TOX_R_SQUARED 0.683, PBLUC_HILL_SLOPE 2.52, PBLUC_R_SQUARED 0.576, read-out: LUCIFERASE INFECTION ASSAY - IC50”, the IC50 came to 6.48 µM.
Regarding `COc1cccc(CN2CCN3C=C(C(=O)Nc4ccc(OCc5ccccc5)cc4)OC3=NC2=O)c1`, the IC90 was over 10 µM. Moreover, where the note is “HEPG2TOX_HILL_SLOPE 3.22, HEPG2TOX_R_SQUARED 0.229, read-out: LUCIFERASE INFECTION ASSAY - IC50”, the IC50 was over 10 µM.
Take `CCCn1nc(C(=O)NCCc2ccc(-n3cccn3)cc2)c2ccccc2c1=O`: the IC90 was found to be 4.06 µM. Moreover, for the setting “HEPG2TOX_HILL_SLOPE 1.69, HEPG2TOX_R_SQUARED 0.716, PBLUC_HILL_SLOPE 8.19, PBLUC_R_SQUARED 0.628, read-out: LUCIFERASE INFECTION ASSAY - IC50”, the IC50 was 3.1 µM.
In the case of `Cc1ccc(-c2cnc3c(Nc4ccc(NS(=O)(=O)c5ccc(C)cc5)cc4)nccn23)cc1`, the IC90 was over 7.03 µM. In addition, under “PBLUC_HILL_SLOPE 0.774, PBLUC_R_SQUARED 0.875, read-out: LUCIFERASE INFECTION ASSAY - IC50”, the IC50 is 1.09 µM.
Turning to `Cc1ccc(CSc2nc(C)c(Oc3ccc(F)cc3)c(=O)n2C)cc1`, the IC90 was over 8.91 µM. Further, the IC50 under setting [1] is over 8.91 µM.
Take `COc1ccc(C(N)=O)c(OCCOc2ccc(C(C)C)c(C)c2)c1`: the IC90 was over 10 µM. Further, the half-maximal inhibitory concentration (IC50) (PBLUC_HILL_SLOPE 1.7, PBLUC_R_SQUARED 0.184, read-out: LUCIFERASE INFECTION ASSAY - IC50) came out at 4.61 µM.
Turning to `CN(CCC#N)C(=S)NCCc1ccccc1`, the IC90 was over 10 µM. In addition, the IC50 under setting [1] was over 10 µM.
Regarding `Cn1nc(-c2ccccc2)c(/C=N/O)c1Sc1ccc(C(C)(C)C)cc1`, the IC90 was over 9.03 µM. Under “FFLUC_HILL_SLOPE 15.8, FFLUC_R_SQUARED 0.096, HEPG2TOX_HILL_SLOPE 2.21, HEPG2TOX_R_SQUARED 0.952, PBLUC_HILL_SLOPE 13.8, PBLUC_R_SQUARED 0.121, read-out: LUCIFERASE INFECTION ASSAY - IC50”, the IC50 turned out to be 8.79 µM.
On to `Cc1nccc(-c2cccc(N/N=C(\C#N)S(=O)(=O)c3ccccn3)c2)n1`, for which the IC90 worked out at 8.23 µM. Also, the IC50 (HEPG2TOX_HILL_SLOPE 1.84, HEPG2TOX_R_SQUARED 0.959, PBLUC_HILL_SLOPE 1.78, PBLUC_R_SQUARED 0.641, read-out: LUCIFERASE INFECTION ASSAY - IC50) was 2.4 µM.
For `Cc1nc2ccc(I)cn2c1/C=N/Nc1ccccn1`, the IC90 was over 10 µM. Moreover, where the note is “PBLUC_HILL_SLOPE 2.99, PBLUC_R_SQUARED 0.247, read-out: LUCIFERASE INFECTION ASSAY - IC50”, the half-inhibitory concentration (IC50) is 6.77 µM.
Take `CC(C)(C)Nc1ncnc2sc(-c3ccccc3)cc12`: the IC90 was over 10 µM. Further, the IC50 (PBLUC_HILL_SLOPE 1.75, PBLUC_R_SQUARED 0.697, read-out: LUCIFERASE INFECTION ASSAY - IC50) turned out to be 4.97 µM.
Consider `O=C(Nc1ccc(F)cc1)Nc1cnn(-c2ccc([N+](=O)[O-])cc2)c1C(F)(F)F`, for which the IC90 is over 8.06 µM. Moreover, the IC50 under setting [1] was 2.92 µM.
In the case of `Cc1cc[n+](CC(=O)Nc2ccc(OC(F)F)cc2)c2ccccc12`, the IC90 is 1.27 µM. Moreover, the IC50 (HEPG2TOX_HILL_SLOPE 2.14, HEPG2TOX_R_SQUARED 0.242, PBLUC_HILL_SLOPE 15.8, PBLUC_R_SQUARED 0.258, read-out: LUCIFERASE INFECTION ASSAY - IC50) was determined as 1.1 µM.
With `NS(=O)(=O)c1ccc2c(c1)CCN2Cc1ccc(Cl)cc1`, the IC90 was over 2 µM. Moreover, under setting [1], the IC50 is over 2 µM.
As to `Cc1ccc(N(CCC#N)C(=O)COC(=O)c2c3c(nc4ccccc24)/C(=C/c2c(F)cccc2Cl)CC3)cc1`, the IC90 was over 10 µM. Besides, under setting [1], the IC50 was over 10 µM.
`CC(C)[C@H](NC(=O)c1ccc(Cl)cc1)C(=O)OCC(=O)NCCc1ccc(S(N)(=O)=O)cc1`: the IC90 is over 10 µM. For the same molecule, the IC50 (HEPG2TOX_HILL_SLOPE 0.118, HEPG2TOX_R_SQUARED 0.186, PBLUC_HILL_SLOPE 0.264, PBLUC_R_SQUARED 0.0178, read-out: LUCIFERASE INFECTION ASSAY - IC50) was over 10 µM.
With `CCOC(=O)c1c(C)[nH]c(C(=O)Nc2nc(-c3c(C)cc(C)cc3C)cs2)c1C`, the IC90 came out at 9.66 µM. The IC50 (FFLUC_HILL_SLOPE 12.1, FFLUC_R_SQUARED 0.461, HEPG2TOX_HILL_SLOPE 1.22, HEPG2TOX_R_SQUARED 0.98, PBLUC_HILL_SLOPE 1.25, PBLUC_R_SQUARED 0.783, read-out: LUCIFERASE INFECTION ASSAY - IC50) is 1.65 µM.
Consider `Cc1cc(C(=O)OCC(=O)NC2CCCCCCC2)c(C)n1-c1ccccc1`, for which the IC90 was over 10 µM. Also, the IC50 under setting [1] was over 10 µM.
Regarding `CC(C)(C)c1ccc(-c2nnc(SCC(=O)N(Cc3ccccc3)c3nc(-c4ccc(Cl)cc4)cs3)n2-c2ccc(Br)cc2)cc1`, the IC90 is over 10 µM. Moreover, under setting [1], the IC50 is over 10 µM.
As for `Cc1nn(Cc2ccc(C(=O)NC3CC3)cc2)c(C)c1[N+](=O)[O-]`, the IC90 was over 10 µM. In addition, the IC50 (PBLUC_HILL_SLOPE 1.06, PBLUC_R_SQUARED 0.0833, read-out: LUCIFERASE INFECTION ASSAY - IC50) is over 10 µM.
Regarding `COc1ccc(C(=O)Nc2ccc(Oc3cc(C(F)(F)F)cc(C(F)(F)F)c3)cc2)cc1`, the IC90 stood at 2.35 µM. For the same molecule, the IC50 under setting [1] turned out to be 0.486 µM.
Regarding `Cc1c(C(=O)OCc2ccc(C(C)C)cc2)sc2nc3n(c(=O)c12)CCC3`, the IC90 was over 10 µM. For the same molecule, the IC50 (PBLUC_HILL_SLOPE 5.57, PBLUC_R_SQUARED 0.253, read-out: LUCIFERASE INFECTION ASSAY - IC50) was 6.97 µM.
`CC(C)Cn1c(N)c(C(=O)COC(=O)c2cc(-c3cccs3)nc3ccccc23)c(=O)n(C)c1=O`: the IC90 is 3.23 µM. For the setting “FFLUC_HILL_SLOPE 33.5, FFLUC_R_SQUARED 0.479, PBLUC_HILL_SLOPE 4.72, PBLUC_R_SQUARED 0.427, read-out: LUCIFERASE INFECTION ASSAY - IC50”, the IC50 is 2.03 µM.
Take `CCOC(=O)C1CCCN(Cn2nc(-c3ccc(Br)cc3)n(C3CCCCC3)c2=S)C1` (centres undefined): the IC90 is over 10 µM. Further, the IC50 (PBLUC_HILL_SLOPE 2.91, PBLUC_R_SQUARED 0.109, read-out: LUCIFERASE INFECTION ASSAY - IC50) turned out to be 5.86 µM.
With `CCCn1c(N)c(C(=O)CN(C)Cc2cccc(Cl)c2Cl)c(=O)[nH]c1=O`, the IC90 came out at 3.38 µM. The IC50 (PBLUC_HILL_SLOPE 149, PBLUC_R_SQUARED 0.302, read-out: LUCIFERASE INFECTION ASSAY - IC50) is 3.33 µM.
`CCc1ccc(NC(=O)c2ccc(S(=O)(=O)N(C)C)cc2)cc1`: the IC90 was over 9.93 µM. Besides, the IC50 (HEPG2TOX_HILL_SLOPE 5.62, HEPG2TOX_R_SQUARED 0.338, PBLUC_HILL_SLOPE 17.2, PBLUC_R_SQUARED 0.289, read-out: LUCIFERASE INFECTION ASSAY - IC50) worked out at 9.7 µM.
With `Cc1cccc(Nc2ncc(C(=O)c3cccc(-c4ccncc4)c3)[nH]2)c1`, the IC90 turned out to be 2.02 µM. The IC50 (HEPG2TOX_HILL_SLOPE 1.98, HEPG2TOX_R_SQUARED 0.759, PBLUC_HILL_SLOPE 4.11, PBLUC_R_SQUARED 0.608, read-out: LUCIFERASE INFECTION ASSAY - IC50) was found to be 1.18 µM.
With `COC(=O)c1ccc(COc2ccc(/C=N/Nc3ccnc4cc(Cl)ccc34)cc2OC)cc1`, the IC90 is over 10 µM. Under setting [1], the IC50 was over 10 µM.
Turning to `O=C(/N=c1\sc(-c2ccccc2)c(-c2ccccc2)n1CCc1ccccc1)c1ccccc1`, the IC90 is over 10 µM. Moreover, the IC50 (FFLUC_HILL_SLOPE 3.75, FFLUC_R_SQUARED 0.66, PBLUC_HILL_SLOPE 10.4, PBLUC_R_SQUARED 0.195, read-out: LUCIFERASE INFECTION ASSAY - IC50) came out at 8.64 µM.
Turning to `CC(C)(C)c1cc2nc(C(F)(F)F)cc(N/N=C/c3ccccc3)n2n1`, the IC90 was over 9.13 µM. In addition, for the setting “PBLUC_HILL_SLOPE 15.2, PBLUC_R_SQUARED 0.244, read-out: LUCIFERASE INFECTION ASSAY - IC50”, the IC50 was found to be 8.24 µM.
For the molecule `Fc1ccc(/C=N/n2c(-c3ccc(Cl)cc3)cs/c2=N\CC2CCCO2)cc1` (centres undefined), the IC90 was over 10 µM. Also, under “PBLUC_HILL_SLOPE 2, PBLUC_R_SQUARED 0.363, read-out: LUCIFERASE INFECTION ASSAY - IC50”, the 50% inhibitory concentration (IC50) is 5.58 µM.
Consider `CCCCc1[nH]nc2ccnc(-c3ccc(CO)cc3)c12`, for which the IC90 is over 10 µM. Moreover, where the note is “HEPG2TOX_HILL_SLOPE 1.75, HEPG2TOX_R_SQUARED 0.977, read-out: LUCIFERASE INFECTION ASSAY - IC50”, the IC50 was over 10 µM.
